According to patent US9724312B2, “Agent for the prevention, improvement or treatment of retinal disease” (ROHTO PHARMACEUTICAL CO., LTD., priority 2012, dated 2017):

How the values were obtained:
[1] = system: PC12; test: Protective effect against ischemic cell death induced by hypoxia and low glucose (Cell Titer-Glo cell viability); format: cell-based, rat; conditions: 30 μM, 2 h pre-incubation, then low glucose/zero percent O2 8 h, FIG. 1, n=10, Tukey-Kramer
Text: The progress of visual impairment in glaucoma is associated with retinal ganglion cell (RGC) death due to blood flow failure occurring near the optic nerve (Folia Pharmacol. Jpn. 128, 255-258 (2006)). With the use of PC12, which is a typical neural cell line established from rat adrenal […] pheochromocytoma and used also as a model cell for the functional evaluation of RGC (J Neurosci Res. 2000 May 15; 60(4): 495-503), the cytoprotective effect of GGA against ischemic cell death induced by hypoxia and low glucose was evaluated.
Test samples were prepared as follows. The test substances were four types of GGAs that contain the all-trans form and the 5Z-mono-cis form at a weight ratio of 10:0, 8:2, 6:4, and 0:10, respectively. […]
After 8 hours of incubation, 100 μL of an equivalent mixture of a cell viability detection reagent Cell Titer-Glo (Promega) and PBS was added to each well and the luminescence produced by the reaction with ATP in living cells was measured with a luminometer (GloMax; Promega). The cell viability was calculated from the measured luminescence by the following formula and the cytoprotective effect of GGA against oxidative stress by hydrogen peroxide was examined. Cell viability(%)=100×[(luminescence of base- or GGA-treated group)/(luminescence of non-treated group)]

[2] = system: rat-derived retinal ganglion cells (RGC); test: Neurite outgrowth inducing effect in culture system of rat-derived retinal ganglion cells; format: cell-based; conditions: all-trans form content 3 μM, 48 h; FIG. 2 and 3; n=4, Tukey-Kramer
Text: The progress of visual impairment in glaucoma is associated with retinal ganglion cell (RGC) death due to blood flow failure occurring near the optic nerve (Folia Pharmacol. Jpn. 128, 255-258 (2006)). Accordingly, a culture system of rat-derived retinal neurons (Current protocols in Neuroscience 3.22.1-3.22.10, October 2010), which is widely used as one of study tools for optic nerve diseases such as a glaucoma, was used to examine the neurite outgrowth inducing effect of GGA.
Four-day-old Wistar rats (Japan SLC, Inc.) were euthanized by cervical dislocation and the eyeballs were harvested. The harvested eyeballs were immersed in 70% ethanol for 10 seconds and transferred to a Hanks' balanced salt solution containing 100 U/mL penicillin and 100 μg/mL streptomycin. Under a stereoscopic microscope, the corneas, irises, crystalline lenses, and vitreous bodies were removed using scissors for surgery and forceps, and the retinal tissue was harvested. The harvested retinal tissue was transferred to a centrifugation tube containing 5 mL of a basal medium for neuronal cells (Neurobasal, Invitrogen) containing 100 U/mL penicillin, 100 μg/mL streptomycin, a neural cell culture supplement (B27™-Supplement, Invitrogen), 1 μM L-cysteine (Kyowa Hakko Bio) and 15 U/mL papain (Sigma Aldrich) and incubated at 37° C. for 30 minutes. […]

CC(=O)CC/C=C(\C)CC/C=C(\C)CC/C=C(\C)CCC=C(C)C [all-trans form, (5E,9E,13E)-6,10,14,18-tetramethyl-5,9,13,17-nonadecatetrae n-2-one]
cytoprotective effect compared with GGA 6:4 [1]: significantly higher cytoprotective effects
neurite inducing effect (mean length of neurites of RGC) compared with GGA 6:4 and base [2]: significant neurite inducing effect
